Read-outs that look alike come from different tables or passages of the source.
Test system: patients with advanced metastatic cancer
Text: In this phase 1 study, dose escalation was followed by expansion cohorts of once-daily, oral M2698 in continuous 21-day cycles. Primary objectives were to determine the maximum tolerated dose (MTD), dose-limiting toxicities (DLTs), and recommended phase 2 dose (RP2D). Secondary objectives were to assess safety and tolerability, pharmacokinetics (PK, including food effect) and antitumor activity. Pharmacodynamic biomarker assessments were exploratory. Treatment was discontinued if there was disease progression, toxicity or consent withdrawal.
In Part 1, M2698 monotherapy was investigated in a dose escalation with a food effect cohort. In Part 2, M2698 was investigated as monotherapy (expansion cohort) to further characterize safety, tolerability and pharmacokinetics, and assess antitumor activity in PAM + patients without confounding markers (exploratory).
Dose escalation analysis included all patients who experienced a DLT and those who received ≥ 80% of planned M2698 doses in cycle 1 without experiencing a DLT. Safety analysis included all patients who received ≥ 1 dose of M2698. PK analysis included all patients who received ≥ 1 dose of M2698 and had measurable plasma concentrations. Dose proportionality was tested using the power model (linear regression approach on the log -transformed scale).

SMILES: NC(=O)c1cccc2c(N[C@H](CN3CCC3)c3ccc(Cl)c(C(F)(F)F)c3)ncnc12 [M2698]
- M2698-related TEAE: Delusion (200 mg n=3): 0
- M2698-related TEAE: Depression (200 mg n=3): 0
- M2698-related TEAE: Diarrhoea (200 mg n=3): 0
- M2698-related TEAE: Diarrhoea haemorrhagic (200 mg n=3): 0
- M2698-related TEAE: Dizziness (200 mg n=3): 0
- M2698-related TEAE: Dry eye (200 mg n=3): 0
- M2698-related TEAE: Dry mouth (200 mg n=3): 0
- M2698-related TEAE: Dysgeusia (200 mg n=3): 0
- M2698-related TEAE: Dyspepsia (200 mg n=3): 0
- M2698-related TEAE: Dysphagia (200 mg n=3): 0
- M2698-related TEAE: Energy increased (200 mg n=3): 0
- M2698-related TEAE: Erythema (200 mg n=3): 0
- M2698-related TEAE: Euphoric mood (200 mg n=3): 0
- M2698-related TEAE: Eye disorders (200 mg n=3): 0
- M2698-related TEAE: Fatigue (200 mg n=3): 0
- M2698-related TEAE: Gamma-glutamyltransferase increased (200 mg n=3): 0
- M2698-related TEAE: Gastrointestinal disorders (200 mg n=3): 1
- M2698-related TEAE: Gastrooesophageal reflux disease (200 mg n=3): 0
- M2698-related TEAE: General disorders and administration site conditions (200 mg n=3): 0
- M2698-related TEAE: Headache (200 mg n=3): 0
- M2698-related TEAE: Hyperhidrosis (200 mg n=3): 0
- M2698-related TEAE: Hypokalaemia (200 mg n=3): 0
- M2698-related TEAE: Hypomagnesaemia (200 mg n=3): 0
- M2698-related TEAE: Insomnia (200 mg n=3): 0
- M2698-related TEAE: Investigations (200 mg n=3): 0
- M2698-related TEAE: Lipase increased (200 mg n=3): 0
- M2698-related TEAE: Lymphopenia (200 mg n=3): 0
- M2698-related TEAE: Metabolism and nutrition disorders (200 mg n=3): 1
- M2698-related TEAE: Mucosal inflammation (200 mg n=3): 0
- M2698-related TEAE: Nausea (200 mg n=3): 1
- M2698-related TEAE: Nervous system disorders (200 mg n=3): 0
- M2698-related TEAE: Nightmare (200 mg n=3): 0
- M2698-related TEAE: Onychomadesis (200 mg n=3): 0
- M2698-related TEAE: Paranoia (200 mg n=3): 0
- M2698-related TEAE: Photosensitivity reaction (200 mg n=3): 0
- M2698-related TEAE: Posterior reversible encephalopathy syndrome (200 mg n=3): 0
- M2698-related TEAE: Pruritus generalised (200 mg n=3): 0
- M2698-related TEAE: Psychiatric disorders (200 mg n=3): 0
- M2698-related TEAE: Rash (200 mg n=3): 0
- M2698-related TEAE: Rash maculo-papular (200 mg n=3): 0
- M2698-related TEAE: Skin and subcutaneous tissue disorders (200 mg n=3): 0
- M2698-related TEAE: Subjects with at least one event (200 mg n=3): 1
- M2698-related TEAE: Transaminases increased (200 mg n=3): 0
- M2698-related TEAE: Tremor (200 mg n=3): 0
- M2698-related TEAE: Vision blurred (200 mg n=3): 0
- M2698-related TEAE: Vomiting (200 mg n=3): 0
- M2698-related TEAE: White blood cell count decreased (200 mg n=3): 0
- M2698-related TEAE: Abnormal dreams (240 mg n=17): 2
- M2698-related TEAE: Affect lability (240 mg n=17): 0
- M2698-related TEAE: Alanine aminotransferase increased (240 mg n=17): 0
- M2698-related TEAE: Amylase increased (240 mg n=17): 0
- M2698-related TEAE: Anaemia (240 mg n=17): 0
- M2698-related TEAE: Angina pectoris (240 mg n=17): 0
- M2698-related TEAE: Anxiety (240 mg n=17): 0
- M2698-related TEAE: Aphasia (240 mg n=17): 0
- M2698-related TEAE: Ataxia (240 mg n=17): 0
- M2698-related TEAE: Blood and lymphatic system disorders (240 mg n=17): 0
- M2698-related TEAE: Blood creatine phosphokinase increased (240 mg n=17): 0
- M2698-related TEAE: Blood creatinine increased (240 mg n=17): 1
- M2698-related TEAE: Cardiac disorders (240 mg n=17): 0
- M2698-related TEAE: Cognitive disorder (240 mg n=17): 1
- M2698-related TEAE: Constipation (240 mg n=17): 0
- M2698-related TEAE: Decreased appetite (240 mg n=17): 0
- M2698-related TEAE: Delusion (240 mg n=17): 0
- M2698-related TEAE: Depression (240 mg n=17): 1
- M2698-related TEAE: Diarrhoea (240 mg n=17): 2
- M2698-related TEAE: Diarrhoea haemorrhagic (240 mg n=17): 0
- M2698-related TEAE: Dizziness (240 mg n=17): 1
- M2698-related TEAE: Dry eye (240 mg n=17): 0
- M2698-related TEAE: Dry mouth (240 mg n=17): 0
- M2698-related TEAE: Dysgeusia (240 mg n=17): 0
- M2698-related TEAE: Dyspepsia (240 mg n=17): 0
- M2698-related TEAE: Dysphagia (240 mg n=17): 0
- M2698-related TEAE: Energy increased (240 mg n=17): 0
- M2698-related TEAE: Erythema (240 mg n=17): 0
- M2698-related TEAE: Euphoric mood (240 mg n=17): 0
- M2698-related TEAE: Eye disorders (240 mg n=17): 0
- M2698-related TEAE: Fatigue (240 mg n=17): 3
- M2698-related TEAE: Gamma-glutamyltransferase increased (240 mg n=17): 0
- M2698-related TEAE: Gastrointestinal disorders (240 mg n=17): 4
- M2698-related TEAE: Gastrooesophageal reflux disease (240 mg n=17): 1
- M2698-related TEAE: General disorders and administration site conditions (240 mg n=17): 3
- M2698-related TEAE: Headache (240 mg n=17): 1
- M2698-related TEAE: Hyperhidrosis (240 mg n=17): 0
- M2698-related TEAE: Hypokalaemia (240 mg n=17): 0
- M2698-related TEAE: Hypomagnesaemia (240 mg n=17): 0
- M2698-related TEAE: Insomnia (240 mg n=17): 0
- M2698-related TEAE: Investigations (240 mg n=17): 1
- M2698-related TEAE: Lipase increased (240 mg n=17): 0
- M2698-related TEAE: Lymphopenia (240 mg n=17): 0
- M2698-related TEAE: Metabolism and nutrition disorders (240 mg n=17): 0
- M2698-related TEAE: Mucosal inflammation (240 mg n=17): 0
- M2698-related TEAE: Nausea (240 mg n=17): 3
- M2698-related TEAE: Nervous system disorders (240 mg n=17): 3
- M2698-related TEAE: Nightmare (240 mg n=17): 0
- M2698-related TEAE: Onychomadesis (240 mg n=17): 0
- M2698-related TEAE: Paranoia (240 mg n=17): 0
- M2698-related TEAE: Photosensitivity reaction (240 mg n=17): 0
- M2698-related TEAE: Posterior reversible encephalopathy syndrome (240 mg n=17): 0

Reference: PMC8371902, “Phase 1 study of M2698, a p70S6K/AKT dual inhibitor, in patients with advanced cancer” (Journal of Hematology & Oncology, 2021)
